Test results taken from US20240217960A1, “TRIAZINE DERIVATIVE AS COVALENT INHIBITORS OF PI3K” (UNIVERSITÄT BASEL, priority 2021, published 2024).
Where two headings read alike, the source gives them in different places.

Key:
p110α (PI3Kα) = p110α (PI3Kα) (Homo sapiens, UniProt P42336); assay: Determination of kinetic constants (kinact, Ki) for p110α by LanthaScreen Technology; assay type: binding; details: for kinact: read-out: kinact PI3Kα; for kinact/KI: read-out: kinact/Ki PI3Kα
Experimental: Maximum potential rate of covalent bond formation (kinact) and dissociation constant of the first reversible binding (Ki) of compounds for p110α were determined by LanthaScreen Technology (Life Technologies). The calculation of kinetic parameters was carried out through global fitting for numerical integration by using KinTek Global Kinetic Explorer modelling software^26-31.

[1] = Intrinsic reactivity of the inhibitors (kchem) with βME measured with HPLC; assay type: physicochemical; details: 1 mM inhibitor + 600 mM βME, n = 3
[2] = system: pSer473 of PKB/Akt in SKOV3 cells; assay: In Cell Western cellular PI3K signaling and IC50 determination; assay type: cell-based; details: Homo sapiens, SK-OV-3; SKOV3 cells; 2 or 3 independent measurements; read-out: IC50 pPKB (S473) SKOV3
Experimental: Protein phosphorylation was detected as follows: pSer473 of PKB/Akt with rabbit polyclonal antibody from Cell Signaling Technology (CST) (#4058) by In-Cell Western assays, where 1.2×10^4 SKOV3 cells/well in 96-well plates were plated (Cell Carrier, PerkinElmer) for 24 hours (37° C., 5% CO2), as described in Ref. ^25.

[3] = dissociation constant of the first reversible binding, global fitting with KinTek, read-out: Ki PI3Kα
[4] = maximum potential rate of covalent bond formation, global fitting with KinTek

Sequence of p110α (PI3Kα) (P42336 whole entry): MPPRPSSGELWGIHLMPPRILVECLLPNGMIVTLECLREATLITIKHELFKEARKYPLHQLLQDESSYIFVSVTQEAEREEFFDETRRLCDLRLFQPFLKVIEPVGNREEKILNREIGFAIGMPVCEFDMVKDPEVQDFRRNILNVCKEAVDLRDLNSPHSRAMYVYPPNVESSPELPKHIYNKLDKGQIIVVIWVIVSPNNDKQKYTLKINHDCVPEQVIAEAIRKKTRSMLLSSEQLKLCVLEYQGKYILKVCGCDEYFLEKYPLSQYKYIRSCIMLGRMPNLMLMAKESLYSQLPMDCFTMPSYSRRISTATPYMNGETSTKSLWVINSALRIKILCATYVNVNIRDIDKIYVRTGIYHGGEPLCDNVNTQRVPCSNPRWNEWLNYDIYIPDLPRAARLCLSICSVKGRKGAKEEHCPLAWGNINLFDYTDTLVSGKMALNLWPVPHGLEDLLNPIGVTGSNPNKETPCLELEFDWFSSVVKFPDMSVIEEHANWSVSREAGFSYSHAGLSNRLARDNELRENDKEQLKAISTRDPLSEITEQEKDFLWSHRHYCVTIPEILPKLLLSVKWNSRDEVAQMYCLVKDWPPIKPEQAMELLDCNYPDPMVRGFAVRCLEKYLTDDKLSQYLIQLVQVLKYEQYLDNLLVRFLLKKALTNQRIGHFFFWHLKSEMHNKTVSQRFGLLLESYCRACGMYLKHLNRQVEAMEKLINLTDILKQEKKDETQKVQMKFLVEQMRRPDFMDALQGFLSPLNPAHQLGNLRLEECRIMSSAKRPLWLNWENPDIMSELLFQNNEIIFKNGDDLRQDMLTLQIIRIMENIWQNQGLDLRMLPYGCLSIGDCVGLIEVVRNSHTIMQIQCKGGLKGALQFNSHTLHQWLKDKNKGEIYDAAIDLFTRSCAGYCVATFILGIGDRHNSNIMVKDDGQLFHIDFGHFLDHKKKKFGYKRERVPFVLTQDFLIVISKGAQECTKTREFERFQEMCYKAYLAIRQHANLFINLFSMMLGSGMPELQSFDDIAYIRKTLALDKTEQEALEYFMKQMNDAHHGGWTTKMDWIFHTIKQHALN
Sequence of p110α (PI3Kα) (P27986 whole entry partner): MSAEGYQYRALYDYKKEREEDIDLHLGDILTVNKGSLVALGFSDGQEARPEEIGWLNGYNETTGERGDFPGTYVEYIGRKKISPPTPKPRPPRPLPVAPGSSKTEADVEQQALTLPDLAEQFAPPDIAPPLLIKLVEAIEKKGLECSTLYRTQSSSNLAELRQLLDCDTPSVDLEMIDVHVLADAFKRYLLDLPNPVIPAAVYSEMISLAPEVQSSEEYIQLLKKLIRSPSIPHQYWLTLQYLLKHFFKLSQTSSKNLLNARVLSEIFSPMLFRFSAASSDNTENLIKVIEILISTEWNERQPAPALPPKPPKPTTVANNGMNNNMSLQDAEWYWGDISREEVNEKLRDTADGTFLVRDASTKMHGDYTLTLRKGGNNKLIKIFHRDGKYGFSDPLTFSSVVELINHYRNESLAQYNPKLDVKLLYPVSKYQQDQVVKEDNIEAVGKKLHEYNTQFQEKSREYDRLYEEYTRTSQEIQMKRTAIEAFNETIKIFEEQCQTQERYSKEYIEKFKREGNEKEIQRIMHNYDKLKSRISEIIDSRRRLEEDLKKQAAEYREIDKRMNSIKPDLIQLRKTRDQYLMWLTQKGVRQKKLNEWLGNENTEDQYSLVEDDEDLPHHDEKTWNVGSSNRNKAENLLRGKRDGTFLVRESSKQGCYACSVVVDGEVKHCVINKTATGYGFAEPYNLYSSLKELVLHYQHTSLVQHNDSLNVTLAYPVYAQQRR

SMILES	IC50 [2] [nM]	further results
C=CC(=O)CCCCC(=O)N1CCN(c2nc(-c3cnc(N)nc3C(F)F)nc(N3CCOCC3)n2)CC1 [Compound 1, 1-(4-(4-(2-amino-4-(difluoromethyl)pyrimidin-5-yl)-6-morpholino-1,3,5-triazin-2-yl)piperazin-1-yl)oct-7-ene-1,6-dione]		Ki (p110α (PI3Kα); [3]): 5.87 nM; kinact (p110α (PI3Kα); [4]): 0.0245 s⁻¹; kinact/KI (p110α (PI3Kα)): 4.2e+06 M⁻¹ s⁻¹; kchem (intrinsic reactivity of the inhibitors) [1]: >>1.00 × 10^−1 M^−1 · s^−1
C=CC(=O)N(C)CCCC(=O)N1CCN(c2nc(-c3cnc(N)nc3C(F)F)nc(N3CCOCC3)n2)CC1 [Compound 7, N-(4-(4-(4-(2-amino-4-(difluoromethyl)pyrimidin-5-yl)-6-morpholino-1,3,5-triazin-2-yl)piperazin-1-yl)-4-oxobutyl)-N-methylacrylamide]		Ki (p110α (PI3Kα); [3]): 7.22 nM; kinact (p110α (PI3Kα)): 6.9e-05 s⁻¹; kinact/KI (p110α (PI3Kα)): 9600 M⁻¹ s⁻¹; kchem (intrinsic reactivity of the inhibitors) [1]: 0.000228 M⁻¹ s⁻¹
C/C=C/C(=O)N(C)CCCC(=O)N1CCN(c2nc(-c3cnc(N)nc3C(F)F)nc(N3CCOCC3)n2)CC1 [Compound 9, (E)-N-(4-(4-(4-(2-amino-4-(difluoromethyl)pyrimidin-5-yl)-6-morpholino-1,3,5-triazin-2-yl)piperazin-1-yl)-4-oxobutyl)-N-methylbut-2-enamide]		Ki (p110α (PI3Kα); Ki value determined after 60 min of drug incubation with PI3Kα, 2 independent measurements, read-out: Ki PI3Kα (footnote d)): 5.4 nM; kchem (intrinsic reactivity of the inhibitors) [1]: 3.35e-06 M⁻¹ s⁻¹
CC(C)=CC(=O)NCCCC(=O)N1CCN(c2nc(-c3cnc(N)nc3C(F)F)nc(N3CCOCC3)n2)CC1 [Compound 17, N-(4-(4-(4-(2-amino-4-(difluoromethyl)pyrimidin-5-yl)-6-morpholino-1,3,5-triazin-2-yl)piperazin-1-yl)-4-oxobutyl)-3-methylbut-2-enamide]		kchem (intrinsic reactivity of the inhibitors) [1]: <<1.00 × 10^−7 M^−1 · s^−1
CCC(=O)N1CCC(C(=O)NCC(=O)N2CCN(c3nc(-c4cnc(N)nc4C(F)F)nc(N4CCOCC4)n3)CC2)CC1 [Compound 44, N-(2-(4-(4-(2-amino-4-(difluoromethyl)pyrimidin-5-yl)-6-morpholino-1,3,5-triazin-2-yl)piperazin-1-yl)-2-oxoethyl)-1-propionylpiperidine-4-carboxamide]	200	Ki (p110α (PI3Kα); [3]): 2.55 nM
CN(C)C/C=C/C(=O)N1CCC(C(=O)N(C)CC(=O)N2CCN(c3nc(-c4cnc(N)nc4C(F)F)nc(N4CCOCC4)n3)CC2)CC1 [Compound 56, (E)-N-(2-(4-(4-(2-amino-4-(difluoromethyl)pyrimidin-5-yl)-6-morpholino-1,3,5-triazin-2-yl)piperazin-1-yl)-2-oxoethyl)-1-(4-(dimethylamino)but-2-enoyl)-N-methylpiperidine-4-carboxamide]	891	
CC(C)=CC(=O)CCCC(=O)N1CCC(C(=O)N2CCN(c3nc(-c4cnc(N)nc4C(F)F)nc(N4CCOCC4)n3)CC2)CC1 [Compound 69, 1-(4-(4-(4-(2-amino-4-(difluoromethyl)pyrimidin-5-yl)-6-morpholino-1,3,5-triazin-2-yl)piperazine-1-carbonyl)piperidin-1-yl)-7-methyloct-6-ene-1,5-dione]	31	
CC(C)CC(=O)CCCC(=O)N1CCC(C(=O)N2CCN(c3nc(-c4cnc(N)nc4C(F)F)nc(N4CCOCC4)n3)CC2)CC1 [Compound 70, 1-(4-(4-(4-(2-amino-4-(difluoromethyl)pyrimidin-5-yl)-6-morpholino-1,3,5-triazin-2-yl)piperazine-1-carbonyl)piperidin-1-yl)-7-methyloctane-1,5-dione]	63	
CC(C)=CC(=O)CCCC(=O)N1CCC(C(=O)N2CCN(c3nc(-c4cnc(N)cc4C(F)(F)F)nc(N4CCOCC4)n3)CC2)CC1 [Compound 71, 1-(4-(4-(4-(6-amino-4-(trifluoromethyl)pyridin-3-yl)-6-morpholino-1,3,5-triazin-2-yl)piperazine-1-carbonyl)piperidin-1-yl)-7-methyloct-6-ene-1,5-dione]	112	
CC(C)=CC(=O)CCC(=O)N1CCC(CN2CCN(c3nc(-c4cnc(N)nc4C(F)F)nc(N4CCOCC4)n3)CC2)CC1 [Compound 72, 1-(4-((4-(4-(2-amino-4-(difluoromethyl)pyrimidin-5-yl)-6-morpholino-1,3,5-triazin-2-yl)piperazin-1-yl)methyl)piperidin-1-yl)-6-methylhept-5-ene-1,4-dione]	46	
CC(C)=CC(=O)CCCC(=O)N1CCC(CN2CCN(c3nc(-c4cnc(N)cc4C(F)(F)F)nc(N4CCOCC4)n3)CC2)CC1 [Compound 78, 1-(4-((4-(4-(6-amino-4-(trifluoromethyl)pyridin-3-yl)-6-morpholino-1,3,5-triazin-2-yl)piperazin-1-yl)methyl)piperidin-1-yl)-7-methyloct-6-ene-1,5-dione]	177	
CC(C)=CC(=O)CCC(=O)N1CC[C@H](C(=O)N2CCN(c3nc(-c4cnc(N)nc4C(F)F)nc(N4CCOCC4)n3)CC2)C1 [Compound 81, (S)-1-(3-(4-(4-(2-amino-4-(difluoromethyl)pyrimidin-5-yl)-6-morpholino-1,3,5-triazin-2-yl)piperazine-1-carbonyl)pyrrolidin-1-yl)-6-methylhept-5-ene-1,4-dione]	24	
CC(C)=CC(=O)CCCC(=O)N1CC[C@H](C(=O)N2CCN(c3nc(-c4cnc(N)nc4C(F)F)nc(N4CCOCC4)n3)CC2)C1 [Compound 84, (S)-1-(3-(4-(4-(2-amino-4-(difluoromethyl)pyrimidin-5-yl)-6-morpholino-1,3,5-triazin-2-yl)piperazine-1-carbonyl)pyrrolidin-1-yl)-7-methyloct-6-ene-1,5-dione]	11	
CC(C)=CC(=O)CCCC(=O)N1CC[C@H](C(=O)N2CCN(c3nc(-c4cnc(N)cc4C(F)(F)F)nc(N4CCOCC4)n3)CC2)C1 [Compound 85, (S)-1-(3-(4-(4-(6-amino-4-(trifluoromethyl)pyridin-3-yl)-6-morpholino-1,3,5-triazin-2-yl)piperazine-1-carbonyl)pyrrolidin-1-yl)-7-methyloct-6-ene-1,5-dione]	73	
CC(C)=CC(=O)CCC(=O)N1CC[C@@H](C(=O)N2CCN(c3nc(-c4cnc(N)nc4C(F)F)nc(N4CCOCC4)n3)CC2)C1 [Compound 86, (R)-1-(3-(4-(4-(2-amino-4-(difluoromethyl)pyrimidin-5-yl)-6-morpholino-1,3,5-triazin-2-yl)piperazine-1-carbonyl)pyrrolidin-1-yl)-6-methylhept-5-ene-1,4-dione]	17	
CC(C)=CC(=O)CCCC(=O)N1CC[C@@H](C(=O)N2CCN(c3nc(-c4cnc(N)nc4C(F)F)nc(N4CCOCC4)n3)CC2)C1 [Compound 89, (R)-1-(3-(4-(4-(2-amino-4-(difluoromethyl)pyrimidin-5-yl)-6-morpholino-1,3,5-triazin-2-yl)piperazine-1-carbonyl)pyrrolidin-1-yl)-7-methyloct-6-ene-1,5-dione]	6.7	
CC(C)=CC(=O)CCCC(=O)N1CC[C@@H](C(=O)N2CCN(c3nc(-c4cnc(N)cc4C(F)(F)F)nc(N4CCOCC4)n3)CC2)C1 [Compound 90, (R)-1-(3-(4-(4-(6-amino-4-(trifluoromethyl)pyridin-3-yl)-6-morpholino-1,3,5-triazin-2-yl)piperazine-1-carbonyl)pyrrolidin-1-yl)-7-methyloct-6-ene-1,5-dione]	93	
CC(C)=CC(=O)CCC(=O)N1CC(C(=O)N2CCN(c3nc(-c4cnc(N)nc4C(F)F)nc(N4CCOCC4)n3)CC2)C1 [Compound 92, 1-(3-(4-(4-(2-amino-4-(difluoromethyl)pyrimidin-5-yl)-6-morpholino-1,3,5-triazin-2-yl)piperazine-1-carbonyl)azetidin-1-yl)-6-methylhept-5-ene-1,4-dione]	34	
CC(C)=CC(=O)CCCC(=O)N1CC(C(=O)N2CCN(c3nc(-c4cnc(N)nc4C(F)F)nc(N4CCOCC4)n3)CC2)C1 [Compound 94, 1-(3-(4-(4-(2-amino-4-(difluoromethyl)pyrimidin-5-yl)-6-morpholino-1,3,5-triazin-2-yl)piperazine-1-carbonyl)azetidin-1-yl)-7-methyloct-6-ene-1,5-dione]	12	
CC(C)=CC(=O)CCC(=O)N1CC(CN2CCN(c3nc(-c4cnc(N)nc4C(F)F)nc(N4CCOCC4)n3)CC2)C1 [Compound 95, 1-(3-((4-(4-(2-amino-4-(difluoromethyl)pyrimidin-5-yl)-6-morpholino-1,3,5-triazin-2-yl)piperazin-1-yl)methyl)azetidin-1-yl)-6-methylhept-5-ene-1,4-dione]	33	
CC(C)=CC(=O)CCCC(=O)N1CC(CN2CCN(c3nc(-c4cnc(N)nc4C(F)F)nc(N4CCOCC4)n3)CC2)C1 [Compound 97, 1-(3-((4-(4-(2-amino-4-(difluoromethyl)pyrimidin-5-yl)-6-morpholino-1,3,5-triazin-2-yl)piperazin-1-yl)methyl)azetidin-1-yl)-7-methyloct-6-ene-1,5-dione]	17	
N#C/C(=C/C1CC1)C(=O)N1CCC(COCC(=O)N2CCN(c3nc(-c4cnc(N)nc4C(F)F)nc(N4CCOCC4)n3)CC2)CC1 [Compound 118, (Z)-2-(4-((2-(4-(4-(2-amino-4-(difluoromethyl)pyrimidin-5-yl)-6-morpholino-1,3,5-triazin-2-yl)piperazin-1-yl)-2-oxoethoxy)methyl)piperidine-1-carbonyl)-3-cyclopropylacrylonitrile]	5.96	Ki (p110α (PI3Kα); [3]): 1 nM; kinact (p110α (PI3Kα); [4]): 0.0108 s⁻¹; kinact/KI (p110α (PI3Kα)): 1.08e+07 M⁻¹ s⁻¹
